Measurements as given in US5145850A, “Imidazopyridazines, their production and use” (Takeda Chemical Industries, Ltd., priority 1990, dated 1992).

Tested on: Platelet Activating Factor (PAF)-induced bronchoconstriction
Assay: Effect on Bronchoconstriction Induced by Platelet Activating Factor (PAF) in Guinea Pigs (Konzett-Rossler method)
Format: in vivo, Male Hartley guinea pigs
Conditions: guinea pig; drug 10 mg/Kg orally 1 hour before PAF (1 μg/Kg, i.v.); recorded for 15 minutes
Experimental: Effect on Bronchoconstriction Induced by Platelet Activating Factor (PAF) in Guinea Pigs
Male Hartley guinea pigs (body weight 500 g) were used. The bronchoconstriction reaction in the guinea pig which has intravenously received PAF (1 μg/Kg) was measured by the Konzett-Rossler method. The trachea of the guinea pig with its back fixed was incised under anesthesia condition with urethane (intraperitoneal injection, 1.50 g/Kg) and connected with an artificial respirator via a cannula. The branch of the tracheal cannula was connected with a transducer (7020 type, Ugobasile). Air was sent to the trachea at the volume of 3-7 ml/stroke, at the stroke of 70 strokes/min. at load pressure of 10 cm H2 O to lung and overflowed air volume was recorded with Rectegraph (Recte-Hori-8s, Sanei Sokuki) via the transducer. After the guinea pig was treated with galamine (1 mg/Kg, i.v.), PAF (1 μg/Kg) dissolved in a physiological saline solution was administered to the guinea pig via a jugular venous cannula and the bronchoconstriction reaction induced thereby was recorded for 15 minutes. The drug (10 mg/Kg) suspended in a 5% gum arabic solution was administered orally 1 hour before the injection of PAF.

Compound | Inhibition (%) of PAF-induced bronchoconstriction [%]
NS(=O)(=O)CC1(COc2ccc3nccn3n2)COC1 [Example 9, 6-[[2,2-(2-oxatrimethylene)-3sulfamoylpropyl]oxy]imidazo[1,2-b]pyridazine] | 51
NS(=O)(=O)CC1(COc2ccc3nccn3n2)CCCC1 [Example 2, 6-[(2,2-tetramethylene-3-sulfamoylpropyl)oxy]imidazo[1,2-b]pyridazine] | 78
NS(=O)(=O)CC1(COc2ccc3nccn3n2)CC1 [Example 4, 6-[(2,2-dimethylene-3-sulfamoylpropyl)oxy]imidazo[1,2-b]pyridazine] | 48
NS(=O)(=O)CC1(CSc2ccc3nccn3n2)CCC1 [Example 13, 6-[(2,2-trimethylene-3-sulfamoylpropyl)thio]imidazo[1,2-b]pyridazine] | 40
NS(=O)(=O)CC1(COc2ccc3nccn3n2)CCCCC1 [Example 1, 6-[(2,2-pentamethylene-3-sulfamoylpropyl)oxy]imidazo[1,2-b]pyridazine] | 72
NS(=O)(=O)CC1(COc2ccc3nccn3n2)CCC1 [Example 3, 6-[(2,2-trimethylene-3-sulfamoylpropyl)oxy]imidazo[1,2-b]pyridazine] | 58
